Where two headings read alike, the source gives them in different places.
Assays:
[1] = tested on: Cyclooxygenase 2/Cyclooxygenase 1; conditions: cited from earlier work
[2] = collected values of NSAIDs; cited from earlier work
[3] = collected values of NSAIDs; cited from earlier work; remark: listed apart in the source
[4] = tested on: Carageenan - induced rat paw edema; test: Carageenan-induced rat paw edema (anti-inflammatory activity); assay type: in vivo; conditions: in words, compared to parent drug
[5] = in words; pre-treatment; Navarro et al. 1994; cited from earlier work
[6] = IC50 (µg/ml) of COX2 divided by IC50 for COX1, values below 1 indicate selectivity for COX2, from Drugs of Today Vol. 32 Suppl. D 1996 p. 5

Which “Cyclooxygenase 2/Cyclooxygenase 1 ratio” value [1, 6] does the source give for `CC(=O)Oc1ccccc1C(=O)O` [Acetylsalicylic acid] here?
The value was 166.

What about the ED50 [2] of the same compound?
The ED50 was 135.0 mg/kg.

What about the LD50 [3] of the same compound?
Its LD50 is 1520 mg/kg.

And the “Therapeutic Index” value [3]?
Its value is 14.

With `CC(C(=O)O)c1ccc2c(c1)[nH]c1ccc(Cl)cc12` (stereo not drawn) [Carprofen] as the compound, how does the “Cyclooxygenase 2/Cyclooxygenase 1 ratio” value [1] read?
The value was 1.

Which anti-inflammatory activity ([4]; listed as Diclofenac-Zinc complex) does the source give for `O=C([O-])Cc1ccccc1Nc1c(Cl)cccc1Cl.O=C([O-])Cc1ccccc1Nc1c(Cl)cccc1Cl.[Zn+2]` [Diclofenac-Zinc] here?
Its anti-inflammatory activity is “much more than the parent drug”.

What about the anti-inflammatory activity ([4]; listed as Zinc-diclofenac complex) of the same compound?
Its anti-inflammatory activity is “more potent anti-inflammatory activity than diclofenac”.

What does the source list for `O=C(c1ccccc1)c1cccc(NS(=O)(=O)C(F)F)c1` [Diflumidone]?
ED50 [2]: 38.0 mg/kg; LD50 [3]: 750 mg/kg; Therapeutic Index [3]: 20

For `O=C(O)c1ccccc1Nc1cccc(C(F)(F)F)c1` [Flufenamic acid], which ED50 [2] is on record?
The ED50 was 14.7 mg/kg.

What about the LD50 [3] of the same compound?
Its LD50 is 249 mg/kg.

And the “Therapeutic Index” value [3]?
The value was 17.

Which “Cyclooxygenase 2/Cyclooxygenase 1 ratio” value [1] does the source give for `CC(C(=O)O)c1ccc(-c2ccccc2)c(F)c1` (stereo not drawn) [Flurbiprofen] here?
The value was 1.3.

With `CC(C)Cc1ccc(C(C)C(=O)O)cc1` (stereo not drawn) [Ibuprofen] as the compound, how does the ED50 [2] read?
The ED50 was 13.5 mg/kg.

What about the LD50 [3] of the same compound?
Its LD50 is 923 mg/kg.

With `COc1ccc2c(c1)c(CC(=O)O)c(C)n2C(=O)c1ccc(Cl)cc1` [Indomethacin] as the compound, how does the ED50 [2] read?
The ED50 was 2.95 mg/kg.

And the LD50 [3]?
The LD50 was 210 mg/kg.

For `COc1ccc2cc([C@H](C)C(=O)O)ccc2c1` [Naproxen, (+) -2-(6-Methoxy-2-haphthyl) propionic acid], which ED50 [2] is on record?
Its ED50 is 2.10 mg/kg.

For `CS(=O)(=O)Nc1ccc([N+](=O)[O-])cc1Oc1ccccc1` [Nimesulide], which ED50 [2] is on record?
Its ED50 is 1.25 mg/kg.

Which “Cyclooxygenase 2/Cyclooxygenase 1 ratio” value [1, 6] does the source give for `CC(=O)Nc1ccc(O)cc1` [Paracetamol] here?
The value was 7.4.

Which “Cyclooxygenase 2/Cyclooxygenase 1 ratio” value [1] does the source give for `CN1C(C(=O)Nc2ccccn2)=C(O)c2ccccc2S1(=O)=O` [Piroxicam] here?
The value was 250.

With `O=C([O-])c1ccccc1O.[Na+]` [Sodium salicylate] as the compound, how does the “Cyclooxygenase 2/Cyclooxygenase 1 ratio” value [1, 6] read?
Its value is 2.8.

With `CC1=C(CC(=O)O)c2cc(F)ccc2/C1=C\c1ccc([S+](C)[O-])cc1` (stereo not drawn) [Sulindac] as the compound, how does the “Cyclooxygenase 2/Cyclooxygenase 1 ratio” value [1, 6] read?
Its value is 100.

For `Cc1c(Cl)cccc1Nc1ccccc1C(=O)O` [Tolfenamic acid], which “Cyclooxygenase 2/Cyclooxygenase 1 ratio” value [1, 6] is on record?
Its value is 16.7.

With `Cc1ccc(C(=O)c2ccc(CC(=O)O)n2C)cc1` [Tolmetin] as the compound, how does the “Cyclooxygenase 2/Cyclooxygenase 1 ratio” value [1, 6] read?
Its value is 175.

For `CC(=O)NCCCCCC(=O)[O-].CC(=O)NCCCCCC(=O)[O-].[Zn+2]` [Zinc acexamate], which “overall Severity of lessions induced by NSAIDS” value [5] is on record?
Its value is “significantly decreased”.

— EP0987023A1, “Transition metal complexes of non steroidal anti-inflammatory drugs” (PANACEA BIOTEC LIMITED, priority 1998, dated 2000)
